According to patent US20090054389A1, “Topical Composition Comprising an Antibacterial Substance” (Leo Pharma A/S, priority 2006, published 2009):

Columns and labels:
[1] = system: intracellular and extracellular M. leprae; conditions: cited from earlier work
[2] = In vitro skin penetration study (Franz diffusion cells, radiolabelled compositions); conditions: barrier-impaired skin; versus fusidic acid in a monoglyceride composition, or versus composition without stabilising agent

| SMILES | potency against M. leprae [1] | degree of retention in dermis and epidermis, comparison [2] |
| --- | --- | --- |
| CC(=O)O[C@H]1C[C@@]2(C)[C@@H](C[C@@H](O)[C@H]3[C@@]4(C)CC[C@@H](O)[C@@H](C)[C@@H]4CC[C@@]32C)/C1=C(\CCC=C(C)C)C(=O)O [fusidic acid, Fusidic acid] | highly potent |  |
| CC(=O)O[C@H]1C[C@@]2(C)[C@@H](C[C@@H](O)[C@H]3[C@@]4(C)CC[C@@H](O)[C@@H](C)[C@@H]4CC[C@@]32C)/C1=C(\CCC(Br)=C(C)C)C(=O)O [11-^3H 24-bromo-fusidic acid, 24-Bromo-fusidic acid] |  | significantly higher |
